Marks after values point to notes of the source that are not given here.

Common to all, as to type: cell-based
The test system of one experiment is FLG. Briefly: mRNA expression in normal human keratinocytes (real-time PCR), FLG. The settings on record: 30 μM, 72 hours, NHK. The method, then:
(§1) The keratinocyte cell line used is the primary human keratinocyte cell line or NHKs prepared from strips of skin from cosmetic surgery waste (breast reduction). The cells are grown in low-magnesium (0.1 mM) KSFM (Invitrogen) supplemented with 25 μg/ml bovine pituitary extract (BPE) and 1.5 ng/ml […] (EGF).
(§2) The products to be tested are incubated with keratinocytes for 72 hours. The cells are then recovered and an analysis of the expression of target genes involved in epidermal differentiation is carried out using Quantigene technology, used to quantify the expression of mRNA of interest.
(§3) A second study was carried out under the same conditions but by measuring the expression of a larger number of genes (64 targets involved in cell differentiation) by real-time PCR.
(§4) These inductions show the role of SOS-Mg in the induction of keratinocyte differentiation and thus of cicatrization (IVL, SPRR1A, SPRR1B and LOR), in moisturization (Padi1) as well as its antimicrobial properties (hBD2).
Background: In qPCR the cycle at which signal appears reflects the starting amount.

A further experiment has as its system IVL. Briefly: mRNA expression in normal human keratinocytes (real-time PCR), IVL. The settings on record: 30 μM, 72 hours, NHK. The method, then:
as §1, §2, §3, §4

The next experiment has as its system SPRR1B. Briefly: mRNA expression in normal human keratinocytes (real-time PCR), SPRR1B. Particulars: 30 μM, 72 hours, NHK. The method, then: as §1, §2, §3, §4
The next experiment has as its system LOR. Briefly: mRNA expression in normal human keratinocytes (real-time PCR), loricrin. Particulars: 30 μM, 72 hours, NHK, FIG. 1. The method, then:
FIG. 1 represents the relative quantity of loricrin mRNA produced by keratinocytes treated for 72 hours with 30 μM sucrose octasulfate of magnesium (SOS-Mg), 30 μM sucrose octasulfate of sodium (SOS-Na) or 30 μM sucrose octasulfate of magnesium (SOS-Mg) in relation to the negative control.
as §1, §2, §3
(§5) These inductions show the role of SOS-Mg in the induction of keratinocyte differentiation and thus of cicatrization (IVL, SPRR1A, SPRR1B and LOR), in moisturization (Padi1) as well as its antimicrobial properties (hBD2). […]

The test system of the next experiment is hBD2 (DEFB4). Put plainly: mRNA expression in normal human keratinocytes (real-time PCR), hBD2. Particulars: 30 μM, 72 hours, NHK, FIG. 3. The method, then: FIG. 3 represents the relative quantity of hBD2 mRNA produced by keratinocytes treated for 72 hours with 30 μM sucrose octasulfate of magnesium (SOS-Mg), 30 μM sucrose octasulfate of sodium (SOS-Na) or 30 μM sucrose octasulfate of magnesium (SOS-Mg) in relation to the negative control.
as §1, §2, §3, §5

Experiment [1] relates to HaCaT human keratinocytes cell line. Put plainly: Oris Cell Migration Assay, keratinocyte migration. The settings on record: for AVG IF (Intensity of Fluorescence, proportional to the quantity of cells having migrated) / % activity/control: 24 hours; for AVG IF (Intensity of Fluorescence, proportional to the quantity of cells having migrated): DMEM 0% FCS; for % activity/control: in relation to the 0% FCS control. The method, then:
In order to evaluate the impact of sucrose octasulfate of magnesium on the cell migration of HaCaT keratinocyte cell lines, studies were carried out using the Oris Cell Migration Assay Kit (Platypus Technologies). This study was conducted in parallel with sucrose octasulfate of potassium and sucrose octasulfate of sodium for comparison.
The keratinocyte cell line used is the HaCaT human keratinocytes cell line, spontaneously immortalized. This line is frequently cited as a reference model in the literature.
The protocol used for the cell migration study is based on the use of a 96-well kit, Oris Cell Migration Assay (Platypus Technologies—TEBU), enabling the miniaturization and quantification of this cell process.
The principle of this test consists in studying cell migration toward the center of the well of the 96-well plate. It consists in placing a stopper in the wells, in order to create a detection zone 2 mm in diameter. Then the stoppers are removed once the cells are well adhered to the surrounding surface, thus allowing the cells to migrate toward the detection zone. Plates without stoppers and with active agents are incubated at 37° C. for 24 hours in DMEM 0% FCS. The quantity of cells located in the zone previously occupied by the stopper is then analyzed in order to evaluate cell migration. A mask is used to visualize and count only the cells located in this zone. For each condition, an average of 4 to 8 wells is prepared.
The products tested in this study are SOS-Mg obtained in example 1 at a concentration of 10 μM, SOS-K at 10 μM (sucrose octasulfate of potassium), SOS-Na at 10 μM (sucrose octasulfate of sodium) and EGF as positive control. A negative control is prepared in which no compound is added to the culture medium (control 0% FCS).
The results are quantified by means of the following formula:
[formula] • in IF (Intensity of Fluorescence, proportional to the quantity of cells having migrated). • in percentage of activity in relation to the 0% FCS control.

The next experiment concerns Padi1. Put plainly: mRNA expression in normal human keratinocytes (real-time PCR), Padi1. The settings on record: 30 μM, 72 hours, NHK, FIG. 2. The method, then:
FIG. 2 represents the relative quantity of Padi1 mRNA produced by keratinocytes treated for 72 hours with 30 μM sucrose octasulfate of magnesium (SOS-Mg), 30 μM sucrose octasulfate of sodium (SOS-Na) or 30 μM sucrose octasulfate of magnesium (SOS-Mg) in relation to the negative control.
as §1, §2, §3, §5

In another experiment the test system is SPRR1A. Briefly: mRNA expression in normal human keratinocytes (real-time PCR), SPRR1A. The settings on record: 30 μM, 72 hours, NHK. The method, then:
as §1, §2, §3, §4

Another experiment has as its system RNASE7. Put plainly: mRNA expression in normal human keratinocytes (Quantigene), RNASE7. Set-up: dose or concentration left out as unconfirmed. The settings on record: CaCl2, positive control, 72 hours, NHK, in relation to the negative control. The method, then:
(§6) The effect of sucrose octasulfate of magnesium and sucrose octasulfate of potassium and sodium on regulation of molecular targets involved in keratinocyte differentiation processes was evaluated. To that end, normal human keratinocytes (NHK) were brought together with the various products to be tested and the expression of various RNA coding proteins involved in the establishment of protein structures of the cornified envelope, but also in the synthesis of lipids or the expression of antimicrobial peptides, was measured.
(§7) The keratinocyte cell line used is the primary human keratinocyte cell line or NHKs prepared from strips of skin from cosmetic surgery waste (breast reduction). […]
as §2
(§8) The values obtained by Quantigene are normalized in relation to the geometric mean of 2 reference genes, POL2RA and HPRT. Relative quantity is calculated in relation to the control. Regulation of the expression of the gene of interest is taken into account from a RQ (relative quantity)≧1.9 (induction) or RQ[…] (inhibition). […]

A further experiment relates to DEFB103A. Put plainly: mRNA expression in normal human keratinocytes (Quantigene), DEFB103A. Set-up: dose or concentration left out as unconfirmed. Particulars: CaCl2, positive control, 72 hours, NHK, in relation to the negative control. The method, then: as §6, §7, §2, §8
For the next experiment, the system named is UGCG. Briefly: mRNA expression in normal human keratinocytes (Quantigene), UGCG. Set-up: dose or concentration left out as unconfirmed. The settings on record: CaCl2, positive control, 72 hours, NHK, in relation to the negative control. The method, then:
as §6, §7, §2, §8

The subject of the next experiment is CDSN. Put plainly: mRNA expression in normal human keratinocytes (Quantigene), CDSN. Set-up: dose or concentration left out as unconfirmed. The settings on record: positive control, 72 hours, NHK, in relation to the negative control. The method, then: as §6, §7, §2, §8

For the compound “sucrose octasulfate of magnesium [SOS-Mg]”, the “expression of FLG mRNA” value in the experiment with FLG is given as “induced”. Also, the “expression of IVL mRNA” value with IVL was “induced”. In addition, in the experiment on SPRR1B, the “expression of SPRR1B mRNA” value was “induced”. In addition, in the experiment on LOR, the “expression of LOR (loricrin) mRNA” value is recorded as “induced to a greater extent”. In addition, in the experiment with hBD2 (DEFB4), the “expression of hBD2 (DEFB4) mRNA” value is listed as “induced to a greater extent”. For the same compound, in experiment [1] (10 μM, HaCaT), the “AVG IF (Intensity of Fluorescence, proportional to the quantity of cells having migrated)” value (shortened to “AVG IF”) was 7084 ± 662; the “keratinocyte migration (result in words)” value is “induced keratinocyte migration in a statistically significant manner”; the “migration relative to that induced by SOS-Na and SOS-K” value amounted to 1.4 times. Further, in [1] (10 μM), the “% activity/control” value is recorded as 140* %. Also, the “expression of Padi1 mRNA” value in the experiment with Padi1 is “induced to a greater extent”. In the experiment with SPRR1A, the “expression of SPRR1A mRNA” value was “induced”.
For the compound `O=S(=O)([O-])OC[C@H]1O[C@@](COS(=O)(=O)[O-])(O[C@H]2O[C@H](COS(=O)(=O)[O-])[C@@H](OS(=O)(=O)[O-])[C@H](OS(=O)(=O)[O-])[C@H]2OS(=O)(=O)[O-])[C@@H](OS(=O)(=O)[O-])[C@@H]1OS(=O)(=O)[O-].[K+].[K+].[K+].[K+].[K+].[K+].[K+].[K+]` [SOS-K, sucrose octasulfate of potassium], in [1] (10 μM, HaCaT), the “AVG IF” value is 5001 ± 835 and the “keratinocyte migration (result in words)” value is listed as “do not induce keratinocyte migration”. The “% activity/control” value in [1] (10 μM) amounted to 99%.
For “EGF: epithelial growth factor (EGF), positive control of the migration test”, in [1] (EGF 33 ng, positive control, HaCaT), the “AVG IF” value is 16138 ± 1548. Besides, the “% activity/control” value in experiment [1] (EGF 33 ng, positive control) is reported as 320*** %. Besides, the “keratinocyte migration (result in words)” value in [1] (EGF at 33 ng/ml, positive control, HaCaT) is “induced keratinocyte migration (and proliferation) in a very large and significant manner”.
As for `O=S(=O)([O-])OC[C@H]1O[C@@](COS(=O)(=O)[O-])(O[C@H]2O[C@H](COS(=O)(=O)[O-])[C@@H](OS(=O)(=O)[O-])[C@H](OS(=O)(=O)[O-])[C@H]2OS(=O)(=O)[O-])[C@@H](OS(=O)(=O)[O-])[C@@H]1OS(=O)(=O)[O-].[Na+].[Na+].[Na+].[Na+].[Na+].[Na+].[Na+].[Na+]` [SOS-Na, sucrose octasulfate of sodium], in [1] (10 μM, HaCaT), the “AVG IF” value turned out to be 4988 ± 965 and the “keratinocyte migration (result in words)” value is listed as “do not induce keratinocyte migration”. The “% activity/control” value in experiment [1] (10 μM) is reported as 99%.
Turning to `[Ca+2].[Cl-].[Cl-]` [CaCl2], the “Relative quantities (RQ) of mRNA expression, RNASE7” value was 4.5 in the experiment on RNASE7 and “induced” in the experiment with RNASE7 (listed as Calcium). Besides, the “Relative quantities (RQ) of mRNA expression, DEFB103A” value in the experiment on DEFB103A is given as 18.7; with DEFB103A (listed as Calcium), “induced”. The “Relative quantities (RQ) of mRNA expression, UGCG” value in the experiment with UGCG is given as 3.1; in the experiment on UGCG (listed as Calcium), “induced”. In addition, the “Relative quantities (RQ) of mRNA expression, CDSN” value in the experiment on CDSN came out at 1.3.

These data come from patent US9562065B2, “Sucrose octasulfates of magnesium, preparation method thereof and pharmaceutical cosmetic uses of same” (PIERRE FABRE DERMO-COSMETIQUE, priority 2011, dated 2017).
